We go through 2 sequences from patent US20190275145A1, “PARTICULATE VACCINE FORMULATIONS” (PDS BIOTECHNOLOGY CORPORATION, priority 2011, published 2019).

This test relates to HPV-positive tumors (TC-1 cells). Description: Tumor regression efficacy of R-DOTAP/S-DOTAP with HPV-16 E7 peptide antigen (encapsulated or micelles) in TC-1 tumor-bearing mice. Particulars: mouse, in vivo. The method, then:
Subcutaneous HPV-positive tumors were established in mice by injecting […] TC-1 cells into the flank of each mouse on day 0. On day 6, the mice received a single subcutaneous injection of the formulations in a 0.10 ml injection.
The anti-tumor efficacy of vaccine formulations can be evaluated by evaluating tumor regression. In this example, the vaccine formulation comprises cationic lipid nanoparticles and a peptide antigen assembly in a tubular structure. Furthermore, the exemplary cationic lipid in the present example is R-DOTAP and the exemplary antigen assembly is an HPV-16 E7 micelle.
In this example, H-2Db restricted CTL epitope (amino acid 49-57, RAHYNIVTF [SEQ. ID. NO. 1]) derived from HPV 16 E7 protein was extended to amino acids 43-57, GQAEPDRAHYNIVTF, [SEQ. ID. No. 2]. SEQ. ID. No. 2 was then further extended with the amino acids KSS, and a hydrophobic palmitoyl chain was attached to the elongated peptide.
However, formulating the peptide antigen sequence into a particulate structure comprised only of SEQ. ID. No. 3 allows higher doses of the antigen to be delivered compared to delivery via a cationic lipid adjuvant delivery system. Thus, an effective means of overcoming the weak antigenicity of the peptide can be obtained.
To evaluate this approach, HPV-positive tumors were established as described in Example 3 above. […]

For “GQAEPDRAHYNIVTF (listed as Homo sapiens) [SEQ. ID. No. 2, HPV 16 E7 amino acids 43-57]”, the “antigenicity when formulated and evaluated” value is given as “weak antigen”.

Consider “RAHYNIVTF (listed as Homo sapiens) [SEQ. ID. No. 1]”, for which the “antigenicity when formulated and evaluated” value is listed as “weak antigen”.
